Data taken from US10842152B2, “Isothiazolo-based bicycles, processes for their preparation and their use as herbicides and/or plant growth regulators” (Bayer CropScience Aktiengesellschaft, priority 2017, dated 2020).

Columns and labels:
[1] = tested on: MATIN; assay: Herbicidal effect post-emergence; format: in vivo, Matricaria inodora; details: 320 g/ha, visual grading after ca. 3 weeks (Table 7)
Source text: Seeds of mono- and dicotyledonous weed plants and crop plants are sown in wood-fiber pots in sandy loam, covered with soil and grown in a greenhouse under controlled growth conditions. 2 to 3 weeks after sowing, the test plants are sprayed in the single-leaf stage. The compounds according to the invention, formulated in form of wettable powders (WP) or as emulsifiable concentrates (EC), are then sprayed onto the green plant parts as aqueous suspension or emulsion, with the addition of 0.5% of an additive, at an application rate of 600 l of water/ha (converted). After the test plants had been in the greenhouse for ca. 3 weeks under optimum growth conditions, the effect of the preparations is assessed visually in comparison with untreated controls (herbicidal effect in percent (%): 100% effect=plants have died off, 0% effect=as control plants).

[2] = tested on: Setaria viridis; assay: Herbicidal effect pre-emergence; format: in vivo; details: 320 g/ha, visual grading after ca. 3 weeks vs untreated controls
In short: (§1)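 Pre-emergence: WP or EC formulations applied as aqueous suspension/emulsion with 0.5% additive at 600 l water/ha onto covering soil of freshly sown pots in sandy loam. Greenhouse under optimum conditions; visual damage scored after ca. 3 weeks versus untreated controls (100% = plants died, 0% = as control).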

[3] = tested on: Amaranthus retroflexus; assay: Herbicidal effect pre-emergence; format: in vivo; details: 320 g/ha, visual grading after ca. 3 weeks vs untreated controls
In short: as §1

[4] = tested on: Viola tricolor; assay: Herbicidal effect pre-emergence; format: in vivo; details: 320 g/ha, visual grading after ca. 3 weeks vs untreated controls
In short: as §1

[5] = tested on: Nilaparvata lugens; assay: Nilaparvata lugens spray test; format: in vivo; details: application rate 500 g/ha, after 4 days, rice plants
Procedure: (§2) Solvent: 78.0 parts by weight of acetone • • 1.5 parts by weight of dimethylformamide
(§3) Emulsifier: alkylarylpolyglycol ether
(§4) To produce a suitable preparation of active compound, 1 part by weight of active compound is mixed with the stated amount of solvents and is diluted with water, containing an emulsifier concentration of 1000 ppm, to the desired concentration. Further test concentrations are prepared by dilution with emulsifier containing water.
Rice plants (Oryza sativa) are sprayed with a preparation of the active ingredient of the desired concentration and the plants are infested with the brown planthopper (Nilaparvata lugens).
After 4 days mortality in % is determined. 100% means all planthoppers have been killed and 0% means none of the planthoppers have been killed.

[6] = tested on: Setaria viridis; assay: Herbicidal effect post-emergence; format: in vivo; details: 320 g/ha
In short: (§5)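 Greenhouse plants in sandy loam sprayed post-emergence at single-leaf stage (2-3 weeks after sowing) with WP or EC formulations plus 0.5% additive at 600 l water/ha. Damage scored visually after ca. 3 weeks versus untreated controls, 0% (as control) to 100% (dead).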

[7] = tested on: Amaranthus retroflexus; assay: Herbicidal effect post-emergence; format: in vivo; details: 320 g/ha
In short: as §5

[8] = tested on: Stellaria media; assay: Herbicidal effect post-emergence; format: in vivo; details: 320 g/ha, visual grading after ca. 3 weeks (Table 7)
In short: as §5

[9] = tested on: Pharbitis purpurea; assay: Herbicidal effect post-emergence; format: in vivo; details: 320 g/ha, visual grading after ca. 3 weeks (Table 7)
In short: as §5

[10] = tested on: Polygonum convolvulus (=Fallopia convolvulus); assay: Herbicidal effect post-emergence; format: in vivo; details: 320 g/ha, visual grading after ca. 3 weeks (Table 7)
In short: as §5

[11] = tested on: Viola tricolor; assay: Herbicidal effect post-emergence; format: in vivo; details: 320 g/ha
In short: as §5

[12] = tested on: Alopecurus myosuroides; assay: Herbicidal effect pre-emergence; format: in vivo; details: 320 g/ha, visual grading after ca. 3 weeks vs untreated controls
In short: as §1

[13] = tested on: Stellaria media; assay: Herbicidal effect pre-emergence; format: in vivo; details: 320 g/ha, visual grading after ca. 3 weeks vs untreated controls
In short: as §1

[14] = tested on: Nezara viridula; assay: Nezara viridula spray test; format: in vivo; details: application rate 500 g/ha, after 4 days, barley plants
Procedure: as §2, §3
as §4, with “solvent,” for “solvents”, “and the concentrate” for “and”
Barley plants (Hordeum vulgare) infested with larvae of the southern green stink bug (Nezara viridula) are sprayed with a test solution containing the desired concentration of the active ingredient.
After 4 days mortality in % is determined. 100% means all the stink bugs have been killed; 0% means none of the stink bugs have been killed.

[15] = tested on: MATIN; assay: Herbicidal effect pre-emergence; format: in vivo, Matricaria inodora; details: 320 g/ha, visual grading after ca. 3 weeks vs untreated controls
Source text: Seeds of mono- and dicotyledonous weed plants and crop plants are sown in wood-fiber pots in sandy loam and covered with soil. The compounds according to the invention, formulated in the form of wettable powders (WP) or as emulsifiable concentrates (EC), are then applied to the surface of the covering soil as aqueous suspension or emulsion, with the addition of 0.5% of an additive, at an application rate of 600 l of water/ha (converted).
Following treatment, the pots are placed in a greenhouse and kept under optimum growth conditions for the test plants. The visual grading of the damage to the test plants is carried out after ca. 3 weeks in comparison to untreated controls (herbicidal effect in percent (%): 100% effect=plants have died off, 0% effect=as control plants).

[16] = tested on: Abutilon theophrasti; assay: Herbicidal effect post-emergence; format: in vivo; details: 320 g/ha, visual grading after ca. 3 weeks (Table 8)
In short: as §5

[17] = tested on: Phaedon cochleariae; assay: Phaedon cochleariae spray test; format: in vivo; details: application rate 500 g/ha, after 7 days, Chinese cabbage leaf disks
Procedure: as §2, §3, §4
Chinese cabbage (Brassica pekinensis) leaf disks are sprayed with a preparation of the active ingredient of the desired concentration. Once dry, the leaf disks are infested with mustard beetle larvae (Phaedon cochleariae).
After 7 days mortality in % is determined. 100% means all beetle larvae have been killed and 0% means none of the beetle larvae have been killed.

[18] = visual grading after ca. 3 weeks (Table 7)
[19] = visual grading after ca. 3 weeks (Table 9)
[20] = visual grading after ca. 3 weeks (Table 8)

Nc1nsc2c1CC(CO)N(CC1CCCCC1)C2=O (stereo not drawn) [Example I-007]
100%: herbicidal effect MATIN [1] | herbicidal effect AMARE [3] | mortality [5] | herbicidal effect SETVI [6, 18] | herbicidal effect AMARE [7, 18] | herbicidal effect STEME [8] | herbicidal effect PHBPU [9] | herbicidal effect POLCO [10] | herbicidal effect VIOTR [11, 18]
80%: herbicidal effect SETVI [2]
90%: herbicidal effect VIOTR [4]

COCC(=O)Nc1nsc2c(=O)n(CC3CCCCC3)cc(Br)c12 [Example I-087]
100%: herbicidal effect SETVI [2] | herbicidal effect AMARE [3] | herbicidal effect ALOMY [12] | herbicidal effect STEME [13] | herbicidal effect VIOTR [4] | mortality [5] | herbicidal effect SETVI [6, 19] | herbicidal effect AMARE [7, 19] | herbicidal effect VIOTR [11, 19]
90%: mortality [14] | herbicidal effect MATIN [15]

CC(=O)Nc1nsc2c(=O)n(CC3CCCCC3)cc(Cl)c12 [Example I-084]
83%: mortality [17]
100%: herbicidal effect SETVI [2] | herbicidal effect AMARE [3] | herbicidal effect ALOMY [12] | herbicidal effect STEME [13] | herbicidal effect VIOTR [4] | herbicidal effect SETVI [6, 20] | herbicidal effect AMARE [7, 20] | herbicidal effect ABUTH [16] | herbicidal effect VIOTR [11, 20] | herbicidal effect MATIN [15]
